From patent publication US5026711A, “4-amino quinolines and naphthyridines and their use as medicines” (priority 1988, dated 1991)
Where two headings read alike, the source gives them in different places.

Columns and labels:
[1] = target: T1, benzodiazepine receptors of the peripheral type (Felis catus, UniProt A0ABI7ZQW3); test: inhibition of specific binding of [3H] PK11195 to peripheral type benzodiazepine receptors, membrane proteins of cat brain
T1 sequence (A0ABI7ZQW3 15-183): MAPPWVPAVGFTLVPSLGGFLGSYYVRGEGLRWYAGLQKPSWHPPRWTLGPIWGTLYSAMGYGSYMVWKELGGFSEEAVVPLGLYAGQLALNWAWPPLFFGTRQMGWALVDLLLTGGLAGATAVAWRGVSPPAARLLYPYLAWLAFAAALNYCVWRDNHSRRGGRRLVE
Experimental: The method is similar to that described by J. Benavides et al. in Brain Res. Bull. 13 p. 69-77 (1984) and references cited therein.
Suspensions of membrane proteins of cat brain were prepared as described by J. Benavides.
The assays of inhibition of the binding of [^3 H]
Non specific binding was defined as the amount of [^3 H]

[2] = target: central benzodiazepine receptors; test: inhibition of specific binding of [3H] flunitrazepam to central benzodiazepine receptors, rat brain; settings: 4° C., pH 7.4
Experimental: (b) determination of the concentration of the product under study inhibiting 50% of the specific binding of flunitrazepam to the central receptors.
The brains of rats were removed after decapitation and ground, then placed in suspension in an aqueous solution of sucrose (0.32M). The mixture is centrifuged and the pellet is resuspended to give a homogenous suspension in a TRIS-HCl buffered solution (50 mM; pH=7.4). Aliquots of this suspension are incubated at 4° C. after addition of [^3 H] flunitrazepam, alone or with increasing amounts of the compound to be tested.

[3] = system: receptors of the peripheral type; test: in vivo inhibition of [3H] PK11195 binding to peripheral type receptors in organs of the mouse
Experimental: The assays were carried out in the mouse by using the binder [^3 H]
The products to be tested are administered orally in suspension in an aqueous solution of carboxymethylcellulose (1% wt/v) to groups of 4 mice 35 mn before the intravenous injection of [^3 H] […] 5 mn after the injection the animals are sacrificed by decapitation and the different organs are removed and ground in 10 ml Tris-HCl buffer (50 mM; pH=7.4) to give homogenates.
The control groups only received the carboxymethylcellulose solution and the injection of [^3 H]
A determination was made for each organ by means of scintigraphy of:
1--the amount of radioactive binder present in an organ by measuring the radioactivity of an aliquot of the homogenate.
2--the amount of radioactive binder bound to the membrane tissues of an organ by measuring the radioactivity bound on a fiber glass filter after filtration of another aliquot of the homogenate.
3--the amount of radioactive binder bound non-specifically to the membrane tissues by incubating a control homogenate with an excess of RO5-4864, a known binder, followed by binding of the membranes to a filter and measurement of the radioactivity remaining on the membranes.
The inhibition of specific binding, recorded as SB, is equal to the difference between the radioactivity measurements 2 and 3 divided by measurement 1.
The percentages of inhibition of the binding in different organs determined for compounds of the invention and the reference substances are shown in table VI; they are given by the formula: [formula]

[4] = oral acute toxicity in the mouse (LD50); type: in vivo; settings: for LD50: in vivo, oral route
Experimental: The compounds of Examples 3, 67, 90, 107 and 114 are atoxic at the dose of 500 mg/kg in the mouse.

[5] = [3H] PK11195 0.5 nM, cat brain membranes, 4° C., 2h30; read-out: IC50 (peripheral)

Row | Structure (SMILES) | IC50 [1, 5] | IC50 [2] | further results
1 | CN(C(=O)CNc1c(C(=O)c2ccccc2)cnc2cccnc12)c1ccc(Cl)cc1 [compound 26276] | 0.3 nM | 13400 nM | % Inhibition, brain ([3]; 8 mg/kg oral): 78%; % Inhibition, heart ([3]; 8 mg/kg oral): 30%; % Inhibition, kidney ([3]; 8 mg/kg oral): 69%; % Inhibition, spleen ([3]; 8 mg/kg oral): 37%; % Inhibition, thymus ([3]; 8 mg/kg oral): 34%
2 | CN(C(=O)CNc1c(C(=O)c2ccccc2)cnc2cccnc12)c1ccc(Cl)cc1Cl [SR 26972] |  |  | atoxic at the dose of 500 mg/kg [4]: atoxic
3 | CCCN(CCC)C(=O)C(C)Nc1c(C(=O)OCC)cnc2cc(Cl)ccc12 (stereo not drawn) [compound 26310] | 1 nM | > 20000 nM | % Inhibition, brain ([3]; 25 mg/kg oral): 76%; % Inhibition, heart ([3]; 25 mg/kg oral): 39%; % Inhibition, kidney ([3]; 25 mg/kg oral): 32%; % Inhibition, spleen ([3]; 25 mg/kg oral): 52%; % Inhibition, thymus ([3]; 25 mg/kg oral): 31%
4 | CN(C(=O)CNc1c(C(=O)c2ccccc2)cnc2cccnc12)c1ccc(Cl)cc1 [SR 26276] |  |  | LD50 [4]: > 1800 mg/kg
5 | CN1C(=O)CN=C(c2ccc(Cl)cc2)c2cc(Cl)ccc21 [R05-4864, 7-chloro 1,3-dihydro 1-methyl 5-(4-chlorophenyl) 1,4-2H-benzodiazepine 2-one, reference compound] |  |  | IC50 ([1]; read-out: IC50 (peripheral); [3H] PK11195 0.5 nM, cat brain membranes, 4° C., 2h30): 44 nM; IC50 (central) [2]: inactive; % Inhibition, brain ([3]; 15 mg/kg oral): 74%; % Inhibition, heart ([3]; 15 mg/kg oral): 27%; % Inhibition, kidney ([3]; 15 mg/kg oral): 73%; % Inhibition, spleen ([3]; 15 mg/kg oral): 11%; % Inhibition, thymus ([3]; 15 mg/kg oral): 28%
6 | CCC(C)N(C)C(=O)c1cc2ccccc2c(-c2ccccc2Cl)n1 (stereo not drawn) [PK11195, 1-(2-chlorophenyl) 3-(N-methyl N-methylpropyl) carbamoyl isoquinoline, reference compound] | 1.3 nM |  | % Inhibition, brain ([3]; 15 mg/kg oral): 71%; % Inhibition, heart ([3]; 15 mg/kg oral): 27%; % Inhibition, kidney ([3]; 15 mg/kg oral): 54%; % Inhibition, spleen ([3]; 15 mg/kg oral): 29%; % Inhibition, thymus ([3]; 15 mg/kg oral): 30%
7 | COc1ccc(N(C)C(=O)CNc2c(C(=O)c3ccccc3)cnc3cc(Br)ccc23)cc1 [SR 27195] |  |  | atoxic at the dose of 500 mg/kg [4]: atoxic
8 | CC(Nc1c(C(=O)c2ccccc2)cnc2cccnc12)C(=O)N(C)c1ccc(Cl)cc1 (stereo not drawn) [SR 26455] |  |  | atoxic at the dose of 500 mg/kg [4]: atoxic
9 | CN(C(=O)CCNc1c(C(=O)c2ccccc2)cnc2cccnc12)c1ccc(Cl)cc1 [SR 26731] |  |  | atoxic at the dose of 500 mg/kg [4]: atoxic
10 | CCCN(CCC)C(=O)C(C)Nc1c(C(=O)OCC)cnc2ccc(Cl)cc12 (stereo not drawn) [SR 26058] |  |  | atoxic at the dose of 500 mg/kg [4]: atoxic
11 | CN(C(=O)CNc1c(C(=O)c2ccccc2)cnc2cc(Cl)cnc12)c1ccc(Cl)cc1 [compound 26830] | 0.13 nM | > 10000 nM | % Inhibition, brain ([3]; 25 mg/kg oral): 64%; % Inhibition, spleen ([3]; 25 mg/kg oral): 26%
12 | CN(C(=O)CNc1c(C(=O)c2ccccc2)cnc2cc(Br)ccc12)c1ccc(Cl)cc1 [compound 26876] | 0.5 nM | > 10000 nM | % Inhibition, brain ([3]; 25 mg/kg oral): 84%; % Inhibition, spleen ([3]; 25 mg/kg oral): 64%
13 | CCCN(CCC)C(=O)C(C)Nc1c(C(=O)OCC)cnc2cc(C(F)(F)F)ccc12 (stereo not drawn) [SR 26241, ethyl 4-[1-(N,N-dipropylcarbamoyl)ethylamino] 7-trifluoromethyl quinoline 3-carboxylate] |  |  | LD50 [4]: 1100 mg/kg
14 | CN(C(=O)CNc1c(C(=O)c2cccnc2)cnc2cc(Cl)ccc12)c1ccc(Cl)cc1 [compound 26643] | 1.2 nM | > 10000 nM | 
15 | CCCN(CCC)C(=O)C(C)Nc1c(C(=O)OCC)cnc2cc(F)ccc12 (stereo not drawn) [compound 26920] | 18 nM | > 20000 nM | 
16 | CCN(C(=O)CNc1c(C(=O)c2ccccc2)cnc2cccnc12)c1ccc(Cl)cc1 [compound 26858] | 0.77 nM | > 10000 nM | % Inhibition, brain ([3]; 25 mg/kg oral): 95%; % Inhibition, spleen ([3]; 25 mg/kg oral): 84%
17 | CCCN(CCC)C(=O)C(C)Nc1c(C(=O)OCC)c(-c2ccccc2)nc2ccc(Cl)cc12 (stereo not drawn) [compound 26269] | 16 nM | > 20000 nM | 
18 | CNC1=Nc2ccc(Cl)cc2C(c2ccccc2)=[N+]([O-])C1 [CHLORDIAZEPOXIDE, reference compound] |  | 654 nM | IC50 (peripheral) ([1]; [3H] PK11195 0.5 nM, cat brain membranes, 4° C., 2h30): inactive

Row | Structure (SMILES) | IC50 [1, 5] | IC50 [2] | further results
19 | CCCN(CCC)C(=O)C(C)Nc1c(C(=O)OCC)cnc2nc(Cl)ccc12 (stereo not drawn) [compound 26493] | 12 nM | > 20000 nM | 
20 | CCCN(C(=O)CNc1c(C(=O)c2ccccc2)cnc2cc(Cl)ccc12)c1ccc(Cl)cc1 [compound 26397] | 4 nM | > 10000 nM | 
21 | CCCCOC(=O)c1cnc2cc(Cl)ccc2c1NC(C)C(=O)N(CCC)CCC (stereo not drawn) [compound 26449] | 1 nM | > 20000 nM | 
22 | CCCN(CCC)C(=O)C(C)Nc1c(C(=O)OCC)cnc2cccc(Cl)c12 (stereo not drawn) [compound 26399] | 7 nM | 12700 nM | 
23 | Cc1ccc(N(C)C(=O)CNc2c(C(=O)c3ccccc3)cnc3cccnc23)cc1 [compound 26980] | 1.31 nM | 9750 nM | 
24 | COc1ccc(N(C)C(=O)CNc2c(C(=O)c3ccccc3)cnc3cc(Cl)ccc23)cc1 [compound 26846] | 2.9 nM | > 10000 nM | % Inhibition, brain ([3]; 25 mg/kg oral): 91%; % Inhibition, spleen ([3]; 25 mg/kg oral): 80%
25 | CCCN(CCC)C(=O)CC(C)Nc1c(C(=O)OCC)cnc2cc(Cl)cnc12 (stereo not drawn) [compound 26869] | 172 nM | > 20000 nM | 
26 | CN(C(=O)CNc1c(C(=O)c2ccccc2)cnc2cc(Cl)ccc12)c1ccc(Cl)cc1 [compound 26412] | 0.4 nM | > 10000 nM | % Inhibition, brain ([3]; 25 mg/kg oral): 79%; % Inhibition, spleen ([3]; 25 mg/kg oral): 62%
27 | CN(C(=O)CNc1c(C(=O)c2ccccc2)cnc2ccncc12)c1ccc(Cl)cc1 [compound 26409] | 84 nM | > 10000 nM | 
28 | CCCN(CCC)C(=O)CNc1c(C(=O)c2ccccc2)cnc2cc(Cl)ccc12 [compound 26290] | 10 nM | > 10000 nM | 
29 | COc1ccc(N(C)C(=O)CNc2c(C(=O)c3ccccc3)cnc3cccnc23)cc1 [compound 27161] | 2.3 nM | > 10000 nM | % Inhibition, brain ([3]; 25 mg/kg oral): 92%; % Inhibition, spleen ([3]; 25 mg/kg oral): 78%
30 | CN(C(=O)CNc1c(C(=O)c2ccccc2)c[n+]([O-])c2cccnc12)c1ccc(Cl)cc1 [compound 26838] | 10.8 nM | 7650 nM | 
31 | CN(C(=O)CNc1c(C(=O)c2ccccc2)cnc2cc(Cl)ccc12)c1ccc(Cl)c(Cl)c1 [compound 26676] | 1.1 nM | > 10000 nM | 
32 | CCCN(CCC)C(=O)CNc1c(C(=O)c2cccnc2)cnc2cc(Cl)ccc12 [compound 26610] | 35 nM | > 10000 nM | 
33 | CCCN(CCC)C(=O)C(CC)Nc1c(C(=O)OCC)cnc2cc(C(F)(F)F)ccc12 (stereo not drawn) [compound 26306] | 11 nM | > 20000 nM | 
34 | CC(Nc1c(C(=O)c2ccccc2)cnc2cc(Cl)ccc12)C(=O)N(C)c1ccc(Cl)cc1 (stereo not drawn) [compound 26450] | 2 nM | > 10000 nM | 
35 | COc1ccc(C(=O)c2cnc3cccnc3c2NCC(=O)N(C)c2ccc(Cl)cc2)cc1 [compound 27153] | 1.62 nM | 47900 nM | % Inhibition, brain ([3]; 25 mg/kg oral): 87%; % Inhibition, spleen ([3]; 25 mg/kg oral): 52%
